Test results from patent publication US20240238422A1 (Osprey Biopharmaceuticals, Inc., priority 2021, published 2024).

How the values were obtained:
mouse CD22 = biological target: T1, mouse CD22 (Mus musculus, UniProt P35329); test: SPR binding of synthetic Siglec ligands to mouse CD22 ectodomain (Biacore 8K+); settings: grade in words for the conjugatable Siglec ligand-linker
T1 construct: synthetic Siglec ligands for recombinant human and mouse CD22 ectodomains
T1 sequence (P35329 22-708 limits assumed): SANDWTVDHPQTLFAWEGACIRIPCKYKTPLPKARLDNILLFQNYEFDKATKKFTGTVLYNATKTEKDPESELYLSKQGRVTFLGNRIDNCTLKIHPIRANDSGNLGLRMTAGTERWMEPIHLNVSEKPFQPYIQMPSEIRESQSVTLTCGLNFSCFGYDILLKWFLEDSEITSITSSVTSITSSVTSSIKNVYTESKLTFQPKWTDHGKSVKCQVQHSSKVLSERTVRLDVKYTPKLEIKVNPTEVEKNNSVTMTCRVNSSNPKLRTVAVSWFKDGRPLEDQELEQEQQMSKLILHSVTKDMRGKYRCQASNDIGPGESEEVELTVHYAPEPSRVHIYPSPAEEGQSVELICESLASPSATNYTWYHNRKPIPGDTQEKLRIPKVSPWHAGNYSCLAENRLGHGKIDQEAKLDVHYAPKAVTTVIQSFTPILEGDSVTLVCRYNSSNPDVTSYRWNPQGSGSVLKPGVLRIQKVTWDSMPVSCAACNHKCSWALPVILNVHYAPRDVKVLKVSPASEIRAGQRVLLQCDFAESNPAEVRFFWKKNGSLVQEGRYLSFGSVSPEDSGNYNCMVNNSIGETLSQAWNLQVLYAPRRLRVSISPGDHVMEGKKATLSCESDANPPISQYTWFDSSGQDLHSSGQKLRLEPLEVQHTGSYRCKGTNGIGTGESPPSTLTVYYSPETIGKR
Protocol: (§1) The following ligands were evaluated for mouse and human CD22 binding: 1) BPC-Neu5Gc PEG (Cpd. No. 26463), 2) BPC-Neu5Gc GAL (Cpd. No. 26339), 3) MPB-Neu5Ac PEG (Cpd. No. 26334), 4) MPB-Neu5Ac GAL (Cpd. No. 26409), 5) Neu5Gc PEG (Cpd. No. 26591). All tested compounds are alkyne-terminating precursors of PFP-terminating, conjugatable Siglec Linker structures used in conjugates in the following examples.
(§2) Binding assays for synthetic CD22 ligand binding to CD22 receptor ectodomain were run on a Biacore 8K+ instrument (Cytiva). Surface preparation for CD22 conjugates binding to human or mouse CD22 protein consisted of two steps, covalent immobilization of streptavidin followed by capture of Avi-tagged and biotinylated human CD22-Fc fusion (R&D Systems, Cat #AV11968-050) and a mono-Fc fusion of mouse CD22. Using standard amine coupling protocols, Streptavidin (Invitrogen, Cat #: 434301) was immobilized to a Cytiva CM5 chip (Cytiva, Cat #BR100530) by injecting at 100 ug/mL in Sodium Acetate, pH 4.5 (Cytiva, Cat #BR100350) on both flow cells, yielding a final response of 2500 RU. Capture of biotinylated mono Fc human CD22 was performed on channels 1-4 and mouse CD22 on channels 5-8 on the active flow cell (2) and the reference flow cell (1) was kept as unmodified streptavidin to account for any non-specific binding. Human CD22 or mouse CD22 (mono-Fc fusion, 5 μg/mL) was injected on the active flow cell (2) for 90 seconds at 5 μL/min, yielding about 210 RU of captured constructs.
(§3) Binding experiments of Siglec-ligand conjugated proteins were performed on the surfaces prepared above in HBS-EP+ (10 mM HEPES, 150 mM NaCl, 3 mM EDTA, 0.05% Tween-20, pH 7.5) as the running buffer. Conjugates were serially diluted 1:1 in running buffer from 1 μM to 31.25 nM and injected over both the reference and active flow cells for 90 seconds at 30 μL/min. The conjugates were then allowed to dissociate from the surface for 300 seconds. No regeneration was required as the conjugates completely dissociated from the surface after 30 seconds.

human CD22 = biological target: T2, human CD22 (Homo sapiens, UniProt P20273); test: SPR binding of synthetic Siglec ligands to human CD22 ectodomain (Biacore 8K+); settings: grade in words for the conjugatable Siglec ligand-linker
T2 construct: Fc (human CD22-Fc fusion); purchased R&D Systems AV11968-050
T2 sequence (P20273 20-687 limits assumed): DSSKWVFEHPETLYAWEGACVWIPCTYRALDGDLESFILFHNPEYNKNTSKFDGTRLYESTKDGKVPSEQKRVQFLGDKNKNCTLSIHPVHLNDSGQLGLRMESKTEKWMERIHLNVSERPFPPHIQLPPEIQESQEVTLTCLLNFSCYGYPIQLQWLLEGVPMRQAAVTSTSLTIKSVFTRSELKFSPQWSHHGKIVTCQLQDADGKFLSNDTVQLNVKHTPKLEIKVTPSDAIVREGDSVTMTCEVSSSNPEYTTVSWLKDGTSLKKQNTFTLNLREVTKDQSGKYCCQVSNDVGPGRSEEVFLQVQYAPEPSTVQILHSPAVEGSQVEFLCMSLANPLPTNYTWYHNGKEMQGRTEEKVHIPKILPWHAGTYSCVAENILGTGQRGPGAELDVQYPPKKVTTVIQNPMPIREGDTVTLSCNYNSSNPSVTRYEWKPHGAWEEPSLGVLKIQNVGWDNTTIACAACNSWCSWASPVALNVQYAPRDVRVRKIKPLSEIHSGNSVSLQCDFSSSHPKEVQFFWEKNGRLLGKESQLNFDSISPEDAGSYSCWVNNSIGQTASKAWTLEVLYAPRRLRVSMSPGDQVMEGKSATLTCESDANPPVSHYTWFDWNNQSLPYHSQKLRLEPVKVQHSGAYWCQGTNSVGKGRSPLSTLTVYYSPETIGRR
Protocol: as §1, §2, §3

| Mouse Siglec-2 Binding Affinity (mouse CD22) | Human Siglec-2 Binding Affinity (human CD22) | SMILES |
| --- | --- | --- |
| Strong | Strong | O=C(CCOCCOCCn1cc(COCCOCCO[C@]2(C(=O)O)C[C@H](O)[C@@H](NC(=O)CO)[C@H]([C@H](O)[C@H](O)CNC(=O)Cc3ccc(-c4ccccc4)cc3)O2)nn1)NCCCC[C@H](NC(=O)CCCNC(=O)CCOCCOCCn1cc(COCCOCCO[C@]2(C(=O)O)C[C@H](O)[C@@H](NC(=O)CO)[C@H]([C@H](O)[C@H](O)CNC(=O)Cc3ccc(-c4ccccc4)cc3)O2)nn1)C(=O)NCCOCCOCCOCCOCCC(=O)Oc1c(F)c(F)c(F)c(F)c1F [Cpd. No. 26475] |
| V. weak | Strong | CC(=O)N[C@H]1[C@H]([C@H](O)[C@H](O)CNC(=O)c2cccc(Oc3ccccc3)c2)O[C@@](OCCOCCOCc2cn(CCOCCOCCOCCOCCC(=O)Oc3c(F)c(F)c(F)c(F)c3F)nn2)(C(=O)O)C[C@@H]1O [Cpd. No. 24836, (2R,4S,5R,6R)-5-acetamido-6-((1R,2R)-1,2-dihydroxy-3-(3-phenoxybenzamido)propyl)-4-hydroxy-2-(2-(2-((1-(15-oxo-15-(perfluorophenoxy)-3,6,9,12-tetraoxapentadecyl)-1H-1,2,3-triazol-4-yl)methoxy)ethoxy)ethoxy)tetrahydro-2H-pyran-2-carboxylic acid] |
| V. weak | Strong | CC(=O)N[C@H]1[C@H]([C@H](O)[C@H](O)CNC(=O)c2cccc(Oc3ccccc3)c2)O[C@@](OC[C@H]2O[C@@H](OCCc3cn(CCOCCOCCOCCOCCC(=O)Oc4c(F)c(F)c(F)c(F)c4F)nn3)[C@H](O)[C@@H](O)[C@H]2O)(C(=O)O)C[C@@H]1O [Cpd. No. 24906, (2R,4S,5R,6R)-5-acetamido-6-((1R,2R)-1,2-dihydroxy-3-(3-phenoxybenzamido)propyl)-4-hydroxy-2-(((2R,3R,4S,5R,6R)-3,4,5-trihydroxy-6-(2-(1-(15-oxo-15-(perfluorophenoxy)-3,6,9,12-tetraoxapentadecyl)-1H-1,2,3-triazol-4-yl)ethoxy)tetrahydro-2H-pyran-2-yl)methoxy)tetrahydro-2H-pyran-2-carboxylic acid] |
| V. weak | Strong | CC(=O)N[C@H]1[C@H]([C@H](O)[C@H](O)CNC(=O)c2cccc(Oc3ccccc3)c2)O[C@@](OC[C@H]2O[C@@H](OCCc3cn(CCOCCOCCC(=O)NCCCC[C@H](NC(=O)CCCNC(=O)CCOCCOCCn4cc(CCO[C@@H]5O[C@H](CO[C@]6(C(=O)O)C[C@H](O)[C@@H](NC(C)=O)[C@H]([C@H](O)[C@H](O)CNC(=O)c7cccc(Oc8ccccc8)c7)O6)[C@H](O)[C@H](O)[C@H]5O)nn4)C(=O)NCCOCCOCCOCCOCCC(=O)Oc4c(F)c(F)c(F)c(F)c4F)nn3)[C@H](O)[C@@H](O)[C@H]2O)(C(=O)O)C[C@@H]1O (mixture of isomers) [Cpd. No. 26468] |
| Strong | Strong | O=C(Cc1ccc(-c2ccccc2)cc1)NC[C@@H](O)[C@@H](O)[C@@H]1O[C@@](OC[C@H]2O[C@@H](OCCc3cn(CCOCCOCCOCCOCCC(=O)Oc4c(F)c(F)c(F)c(F)c4F)nn3)[C@H](O)[C@@H](O)[C@H]2O)(C(=O)O)C[C@H](O)[C@H]1NC(=O)CO [Cpd. No. 26415, (2R,4S,5R,6R)-6-((1R,2R)-3-(2-([1,1′-biphenyl]-4-yl)acetamido)-1,2-dihydroxypropyl)-4-hydroxy-5-(2-hydroxyacetamido)-2-(((2R,3R,4S,5R,6R)-3,4,5-trihydroxy-6-(2-(1-(15-oxo-15-(perfluorophenoxy)-3,6,9,12-tetraoxapentadecyl)-1H-1,2,3-triazol-4-yl)ethoxy)tetrahydro-2H-pyran-2-yl)methoxy)tetrahydro-2H-pyran-2-carboxylic acid] |
| V. weak | Strong | CC(=O)N[C@H]1[C@H]([C@H](O)[C@H](O)CNC(=O)c2cccc(Oc3ccccc3)c2)O[C@@](OCCOCc2cn(CCOCCOCCC(=O)NCCCC[C@H](NC(=O)CCCNC(=O)CCOCCOCCn3cc(COCCO[C@]4(C(=O)O)C[C@H](O)[C@@H](NC(C)=O)[C@H]([C@H](O)[C@H](O)CNC(=O)c5cccc(Oc6ccccc6)c5)O4)nn3)C(=O)NCCOCCOCCOCCOCCC(=O)Oc3c(F)c(F)c(F)c(F)c3F)nn2)(C(=O)O)C[C@@H]1O [Cpd. No. 26289, (2R,2′R,4S,4′S,5R,5′R,6R,6′R)-2,2′-(((((((S)-9,14,22-trioxo-16-((15-oxo-15-(perfluorophenoxy)-3,6,9,12-tetraoxapentadecyl)carbamoyl)-3,6,25,28-tetraoxa-10,15,21-triazatriacontane-1,30-diyl)bis(1H-1,2,3-triazole-1,4-diyl))bis(methylene))bis(oxy))bis(ethane-2,1-diyl))bis(oxy))bis(5-acetamido-6-((1R,2R)-1,2-dihydroxy-3-(3-phenoxybenzamido)propyl)-4-hydroxytetrahydro-2H-pyran-2-carboxylic acid)] |
| Strong | Strong | O=C(CCOCCOCCn1cc(CCO[C@@H]2O[C@H](CO[C@]3(C(=O)O)C[C@H](O)[C@@H](NC(=O)CO)[C@H]([C@H](O)[C@H](O)CNC(=O)Cc4ccc(-c5ccccc5)cc4)O3)[C@H](O)[C@H](O)[C@H]2O)nn1)NCCCCC(NC(=O)CCCNC(=O)CCOCCOCCn1cc(CCO[C@@H]2O[C@H](CO[C@]3(C(=O)O)C[C@H](O)[C@@H](NC(=O)CO)[C@H]([C@H](O)[C@H](O)CNC(=O)Cc4ccc(-c5ccccc5)cc4)O3)[C@H](O)[C@H](O)[C@H]2O)nn1)C(=O)NCCOCCOCCOCCOCCC(=O)Oc1c(F)c(F)c(F)c(F)c1F (mixture of isomers) [Cpd. No. 26416] |
| No Binding | No Binding | O=C(CCOCCOCCOCCOCCn1cc(COCCOCCOCCOCCO)nn1)Oc1c(F)c(F)c(F)c(F)c1F [Cpd. No. 26530, perfluorophenyl 1-(4-(13-hydroxy-2,5,8,11-tetraoxatridecyl)-1H-1,2,3-triazol-1-yl)-3,6,9,12-tetraoxapentadecan-15-oate] |
| Strong | Strong | O=C(Cc1ccc(-c2ccccc2)cc1)NC[C@@H](O)[C@@H](O)[C@@H]1O[C@@](OCCOCCOCc2cn(CCOCCOCCOCCOCCC(=O)Oc3c(F)c(F)c(F)c(F)c3F)nn2)(C(=O)O)C[C@H](O)[C@H]1NC(=O)CO [Cpd. No. 26288, (2R,4S,5R,6R)-6-((1R,2R)-3-(2-([1,1′-biphenyl]-4-yl)acetamido)-1,2-dihydroxypropyl)-4-hydroxy-5-(2-hydroxyacetamido)-2-(2-(2-((1-(15-oxo-15-(perfluorophenoxy)-3,6,9,12-tetraoxapentadecyl)-1H-1,2,3-triazol-4-yl)methoxy)ethoxy)ethoxy)tetrahydro-2H-pyran-2-carboxylic acid] |

| SMILES | Mouse Siglec-2 Binding Affinity (mouse CD22) | Human Siglec-2 Binding Affinity (human CD22) |
| --- | --- | --- |
| O=C(CCOCCOCCn1cc(COCCOCCO[C@]2(C(=O)O)C[C@H](O)[C@@H](NC(=O)CO)[C@H]([C@H](O)[C@H](O)CNC(=O)Cc3ccc(-c4ccccc4)cc3)O2)nn1)NCCCC[C@H](NC(=O)CCCNC(=O)CCOCCOCCn1cc(COCCOCCO[C@]2(C(=O)O)C[C@H](O)[C@@H](NC(=O)CO)[C@H]([C@H](O)[C@H](O)CNC(=O)Cc3ccc(-c4ccccc4)cc3)O2)nn1)C(=O)N[C@@H](CCCCNC(=O)CCOCCOCCn1cc(COCCOCCO[C@]2(C(=O)O)C[C@H](O)[C@@H](NC(=O)CO)[C@H]([C@H](O)[C@H](O)CNC(=O)Cc3ccc(-c4ccccc4)cc3)O2)nn1)C(=O)NCCOCCOCCOCCOCCC(=O)Oc1c(F)c(F)c(F)c(F)c1F [Cpd. No. 26477] | Strong | Strong |
